Results as given in PMC10290335 (Malaria Journal, 2023).
Several values for one entry are separate records, joined by “and”; a condition that tells them apart may be missing. Identical values can stand only once. Entries after “also recorded” stand apart in the source; their conditions may differ.

How the values were obtained:
[1] = test system: Anopheles stephensi mosquitoes; test: Anopheles stephensi membrane feeding screening assay (survival and activity); format: in vivo; conditions: for Average activity score: score +2 flying, +1 moving, 0 dead; for activity against An. stephensi: at Cmax levels observed in clinical PK samples; for mean survival of mosquitoes after blood meal: blood meal at Cmax level; for mosquitoes dead after 72 h: blood meal at Cmax level (ivermectin 50 ng/mL), 72 h after treatment
Protocol: The final DMSO content in blood was 0.1%, which was also the DMSO concentration used for the negative control assays (0.1% DMSO in blank blood). Inclusion of blank fractions as additional negative controls were not considered, because it would not have been feasible to also test the corresponding blank fraction for each metabolite fraction (F1–F9). The blood preparations were rotated at room temperature for 20 min to ensure a uniform metabolite distribution (Rotator Genie, Scientific Industries, Bohemia, USA). The dissolution of the metabolites was confirmed by LC–MS/MS.
Around 50–70 female mosquitoes aged 5–10 days post-emergence were transferred with a mouth aspirator into 20 mL paper cups. A piece of mosquito netting was used to cover the cups. Mosquitoes were starved for 24 h before treatment. The mosquito blood meals were heated in a water bath (SAHARA PPO S5P Heated Bath Circulators, Thermo Fisher Scientific, New Hampshire, USA) for 20 min at 39 °C. A Petri dish (35 mm × 10 mm, BD, Franklin Lakes, USA) was filled with 3 mL of warm blood, sealed with a piece of sealing film (Parafilm®, Huberlab AG, Aesch, Switzerland). The Petri dish was placed upside down on top of the net sealing the paper cup. Female mosquitoes were allowed to feed for 20 min on the blood through the net and the sealing film. The feeding was conducted in a climate chamber (HPP110, Memmert GmbH + Co.KG, Schwabach, Germany) at 27 °C, 70% humidity, and 30% light intensity. After feeding, the cups were put on ice to immobilise the mosquitoes and only the fully engorged mosquitoes were selected for the assay. The mosquitoes were returned to the climate chamber to assess their activity and survival for 3 days.
In the framework of screening assays, mosquitoes were treated with blood containing each metabolite corresponding to Cmax levels observed in PK samples. […] In screening assays, eleven treatments were evaluated with three replicates using three batches of 50–70 mosquitoes.

[2] = Clinical pharmacokinetics of ivermectin metabolites in blood of healthy volunteers; format: in vivo, human; conditions: for Cmax [ratio]: area/internal standard area ratio; for Cmax [ratio] / Half-life / MRTlast / Tmax: whole blood, 12 subjects, mean ± SE; for Cmax [ratio] / Half-life / MRTlast: 12 mg ivermectin, NCA; for Tmax: single oral 12 mg ivermectin
Protocol: Peripheral venous blood samples were collected before dosing and after 1, 2, 4, 6, 8, 12, 24, 48 and 72 h. Blood samples (50 µL) were extracted by the addition of 150 µL ISTD solution. Samples were mixed for 1 min and centrifuged for 30 min at 3220×g and 15 °C (5810 R centrifuge). Twenty microlitres of supernatant were injected into the LC–MS/MS system to determine the signal intensity of the metabolites.
The different LC–MS/MS settings were applied for the metabolism, pharmacokinetic and metabolite fractioning assays (Additional file 1: Table S1, S2, S3). All analyses were performed on a modular HPLC (Shimadzu, Kyoto, Japan) composed of four pumps (2 × LC-30AD, 2 × LC-20AD), an autosampler (SIL 30-AC MP), a system controller (CBM-20A), two degassing units (DGU-20A5 and DGU-20A3R), a column oven (CTO-20AC), a low-pressure valve (FCV-12AH), and a fraction collector (FRC-12A). The HPLC system was connected to an API 5000 triple quadrupole mass spectrometer (AB Sciex, Ontario, Canada) that was equipped with a turbo electrospray ionization source. The system was operated with Analyst Software 1.7 (AB Sciex) and acquired data were analysed using MultiQuant Software 3.0.3 (AB Sciex).
The integral method “linear up log down” was used on area/internal standard area ratio.
In total, three T0 blank blood samples originating from different PK study participants were used to resuspend the metabolites (Additional file 1: Table S5). The signal intensity was recorded for every metabolite by extracting the 50 µL blood with 150 µL of ISTD solution. The metabolite peak area was determined by LC–MS/MS (see section LC-MS/MS analysis of ivermectin). Moreover, the PK samples of all study participants were equally extracted and analysed to derive the maximal blood level (Cmax) from the blood level-time curves. Afterwards, the mean metabolite peak area of the spiked blank blood was compared with the mean peak area of the Cmax samples (Additional file 1: Table S5). The amount of each metabolite fraction was either reduced or increased to match the peak area of Cmax samples. If the metabolite was not detectable in PK samples, the amount of metabolite was adjusted to the lower limit of detection of the method. In this case, blank blood was spiked with the metabolite fraction to receive a signal intensity that is three times larger than the corresponding noise level.

[3] = test system: Anopheles stephensi mosquitoes; test: 3-day LC50 in Anopheles stephensi (membrane feeding, dilutions); format: in vivo; conditions: 72 h after blood feeding; Cmax = maximal peak area in human PK samples
Protocol: A pilot test was performed to evaluate optimal dilutions matching the expected LC50 values (data not shown).
Student's t test was adopted to test the significance of all mean survival differences between groups, using the R package ggsignif (version 0.6.4). Survival analyses, summary and visualisation of survival analysis were computed using the GNU R packages survival (version 3.1-8) and survminer (version 0.4.9). Replicates were pooled and analysed by the logrank test and the hazard ratio with 95% confidence intervals. LC50 in An. stephensi mosquito were approximated with regression analysis, using GNU R package drc (version 3.0-1) for analysis of dose–response curves (Additional file 1: Fig. S3). The time above LC50 estimation (Additional file 1: Fig. S4) was computed using the GNU R package data.table (version 1.14.6).

rh CYP3A4 supersomes = molecular target: T1, rh CYP3A4 supersomes (Homo sapiens, UniProt P08684); test: Ivermectin metabolism by recombinant human CYP3A4 supersomes; format: in vitro ADME; conditions: 10 µM ivermectin
T1 construct: purchased Corning Life Sciences B.V. (Amsterdam, The Netherlands)
Protocol: (§1) The assay mixture was heated for 10 min at 37 °C in a Thermomixer 5436 (Eppendorf, Hamburg, Germany) and the reaction was initiated by the addition of supersomes. Samples (50 μL) were taken after 0, 15, 30, 45, and 60 min. […] After centrifugation (30 min at 3220×g and 15 °C, 5810 R Eppendorf centrifuge), sample supernatants (10 µL) were analysed by LC–MS/MS. Metabolite production was quantified by dividing the metabolite peak area with the ISTD peak area. Each metabolism assay was performed in triplicate.

rh CYP3A5 supersomes = molecular target: T2, rh CYP3A5 supersomes (Homo sapiens, UniProt P20815); test: Ivermectin metabolism by recombinant human CYP3A5 supersomes; format: in vitro ADME; conditions: 10 µM ivermectin
T2 construct: purchased Corning Life Sciences B.V. (Amsterdam, The Netherlands)
Protocol: as §1

[4] = mean of PK subjects 1-12, 50 µL blood

T2 sequence (P20815 whole entry): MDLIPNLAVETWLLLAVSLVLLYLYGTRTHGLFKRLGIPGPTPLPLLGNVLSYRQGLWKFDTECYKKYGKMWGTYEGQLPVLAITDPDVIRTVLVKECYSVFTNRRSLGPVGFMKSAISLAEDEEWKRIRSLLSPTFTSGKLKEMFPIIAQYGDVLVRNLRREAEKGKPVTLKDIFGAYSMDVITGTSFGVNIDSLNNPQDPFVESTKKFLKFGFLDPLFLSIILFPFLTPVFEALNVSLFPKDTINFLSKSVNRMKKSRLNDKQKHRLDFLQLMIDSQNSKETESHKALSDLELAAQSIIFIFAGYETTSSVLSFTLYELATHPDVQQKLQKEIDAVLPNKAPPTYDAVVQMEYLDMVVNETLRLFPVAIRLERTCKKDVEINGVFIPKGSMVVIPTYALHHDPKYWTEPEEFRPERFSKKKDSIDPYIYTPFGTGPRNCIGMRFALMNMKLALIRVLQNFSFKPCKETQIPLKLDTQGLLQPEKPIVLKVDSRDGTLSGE
T1 sequence (P08684 whole entry): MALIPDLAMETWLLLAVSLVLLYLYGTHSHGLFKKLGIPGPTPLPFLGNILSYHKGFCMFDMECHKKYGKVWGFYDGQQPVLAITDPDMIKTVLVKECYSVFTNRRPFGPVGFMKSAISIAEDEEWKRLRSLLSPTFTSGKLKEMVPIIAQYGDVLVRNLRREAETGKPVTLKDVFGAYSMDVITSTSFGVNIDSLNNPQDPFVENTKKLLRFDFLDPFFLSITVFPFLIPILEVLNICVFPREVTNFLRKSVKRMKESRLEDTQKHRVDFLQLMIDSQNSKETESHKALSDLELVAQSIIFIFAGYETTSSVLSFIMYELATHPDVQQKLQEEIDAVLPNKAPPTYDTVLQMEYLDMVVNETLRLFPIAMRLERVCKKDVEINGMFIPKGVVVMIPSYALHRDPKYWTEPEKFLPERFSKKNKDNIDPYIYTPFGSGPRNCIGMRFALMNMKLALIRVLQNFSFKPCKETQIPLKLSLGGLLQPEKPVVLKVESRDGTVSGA

Compound | Average activity score ([1]; 0 h post feeding) | Average activity score ([1]; 24 h post feeding) | Average activity score ([1]; 48 h post feeding) | Average activity score ([1]; 72 h post feeding) | activity against An. stephensi [1] | mean survival of mosquitoes after blood meal [1] | Observed Cmax, peak area ([2]; PK subject 1, 50 µL blood) [counts] | Observed Cmax, peak area ([2]; PK subject 2, 50 µL blood) [counts] | Observed Cmax, peak area ([2]; PK subject 3, 50 µL blood) [counts] | Observed Cmax, peak area ([2]; PK subject 4, 50 µL blood) [counts] | Observed Cmax, peak area ([2]; PK subject 5, 50 µL blood) [counts] | Observed Cmax, peak area ([2]; PK subject 6, 50 µL blood) [counts] | Observed Cmax, peak area ([2]; PK subject 7, 50 µL blood) [counts] | Observed Cmax, peak area ([2]; PK subject 8, 50 µL blood) [counts] | Observed Cmax, peak area ([2]; PK subject 9, 50 µL blood) [counts] | Observed Cmax, peak area ([2]; PK subject 10, 50 µL blood) [counts] | Observed Cmax, peak area ([2]; PK subject 11, 50 µL blood) [counts] | Observed Cmax, peak area ([2]; PK subject 12, 50 µL blood) [counts] | Observed Cmax, peak area [2, 4] [counts] | Tmax [2] [h] | also measured
CCC(C)C1OC2(CCC1C)CC1CC(CC=C(C)C(OC3CC(OC)C(OC4CC(OC)C(O)C(C)O4)C(C)O3)C(C)C=CC=C3COC4C(O)C(CO)=CC(C(=O)O1)C34O)O2 (stereo not drawn) [M2, 4-hydroxy-H2B1a] | 2.00 | 1.20 and 1.20 ± 0.12 | 0.28 and 0.28 ± 0.05 | 0 | active | decreased | 1.84E+04 | 9.36E+03 | 1.31E+04 | 7.42E+03 | 9.63E+03 | 2.00E+04 | 1.39E+04 | 1.25E+04 | 1.08E+04 | 1.50E+04 | 1.64E+04 | 1.59E+04 | 1.35E+04 | 6.3 ± 0.3 | mosquitoes dead after 72 h [1]: 100%; Cmax [ratio] [2]: 0.010 ± 0.0010 ratio; Half-life [2]: 31.9 ± 3.4 h; MRTlast [2]: 25.8 ± 0.7 h; 3-day LC50 [3]: 0.21 Cmax
CCC(C)C1OC2(CCC1C)CC1CC(CC=C(C)C(OC3CC(OC)C(OC4CC(O)C(O)C(C)O4)C(C)O3)C(C)C=CC=C3COC4C(O)C(C)=CC(C(=O)O1)C34O)O2 (stereo not drawn) [M1, 3″-O-desmethyl-H2B1a] | 2.00 | 1.07 and 1.07 ± 0.04 | 0.23 and 0.23 ± 0.02 | 0.01 | active | decreased | 1.95E+04 | 1.01E+04 | 1.39E+04 | 8.48E+03 | 9.52E+03 | 2.33E+04 | 1.56E+04 | 1.79E+04 | 1.28E+04 | 1.60E+04 | 2.28E+04 | 1.78E+04 | 1.56E+04 | 7.0 ± 0.5 | mosquitoes dead after 72 h [1]: 98.8%; Cmax [ratio] [2]: 0.011 ± 0.001 ratio; Half-life [2]: 54.2 ± 4.7 h; MRTlast [2]: 33.8 ± 0.9 h; 3-day LC50 [3]: 0.25 Cmax
CC[C@H](C)[C@H]1O[C@]2(CC[C@@H]1CO)C[C@@H]1C[C@@H](C/C=C(\C)[C@@H](O[C@H]3C[C@H](OC)[C@@H](O[C@H]4C[C@H](OC)[C@@H](O)[C@H](C)O4)[C@H](C)O3)[C@@H](C)/C=C/C=C3\CO[C@@H]4[C@H](O)C(C)=C[C@@H](C(=O)O1)[C@]34O)O2 [M9, 24-hydroxy-H2B1a] | 2.00 | 1.92 | 1.87 | 1.64 |  |  |  |  |  |  |  |  |  |  |  |  |  |  |  |  | metabolite formation by CYP3A4 (rh CYP3A4 supersomes): only minor amounts; detection in pharmacokinetic samples ([2]; human blood after single oral 12 mg ivermectin): Only traces; metabolite formation by CYP3A5 (rh CYP3A5 supersomes): mainly produced by CYP3A5; also recorded: very effective
26-hydroxy-H2B1a monosaccharide [M7] | 2.00 | 1.85 | 1.80 | 1.69 |  |  | 1.31E+03 | 7.70E+02 | 9.70E+02 | 7.68E+02 | 8.12E+02 | 1.39E+03 | 1.26E+03 | 1.09E+03 | 7.88E+02 | 9.63E+02 | 1.21E+03 | 9.57E+02 | 1.02E+03 | 6.1 ± 0.4 | 
